These results are taken from patent US6716850B2, “Non-nucleoside reverse transcriptase inhibitors” (Medivir AB, priority 2001, dated 2004).

In one assay the target is T1, HIV-1 reverse transcriptase (Human immunodeficiency virus type 1 group M subtype B, UniProt P04585).
T1 construct: active against reverse transcriptase, especially that of HIV-1
The assay is described as follows: activity of separated optical isomers (test not stated). The following applies: second eluting peak on chiral AGP column.
Take `N#Cc1ccc(NC(=O)N[C@@H]2[C@@H]3COc4c(F)ccc(F)c4[C@@H]32)nc1` [Example 30, (−)-cis-1-(5-Cyano-pyridin-2-yl)-3-(4,7-difluoro-1,1a,2,7b-tetrahydro-cyclopropa[c]chromen-1-yl)-urea]: the “activity of the more slowly eluting isomer, typically negative rotation” value is “particularly active”.
Consider `O=C(Nc1ccc(Cl)cn1)N[C@H]1C2c3c(F)ccc(F)c3OC[C@H]21` (single isomer, unassigned; (-)) [Example 31, (−) cis-1-(5-Chloro-pyridin-2-yl)-3-(4,7-difluoro-1,1a,2,7b-tetrahydro-cyclopropa[c]chromen-1-yl)-urea], for which the “activity of the more slowly eluting isomer, typically negative rotation” value was “particularly active”.

The subject of a further assay is HIV-1IIIB (wild type). The assay is described as follows: XTT assay in MT-4 cells infected with wild type HIV-1IIIB. Type of assay: cell-based. The following applies: Human immunodeficiency virus 1, MT4, read-out: ED50. Here is the method: Compounds of the invention are assayed for HIV activity, for example using multiple determinations with XTT in MT-4 cells (Weislow et al, J Nat Cancer Inst 1989, vol 81 no 8, 577 et seq), preferably including determinations in the presence of 40-50% human serum to indicate the contribution of protein binding. In short the XTT assay uses human T cell line MT4 cells grown in RPMI 1640 medium supplemented with 10% fetal calf serum (or 40-50% human serum as appropriate), penicillin and streptomycin seeded into 96 well microplates (2·10^4 cells/well) infected with 10-20 TCID50 per well of HIV-1IIIB (wild type) or mutant virus, such as those bearing RT lie 100, Cys 181 or Asn 103 mutations. Serially diluted test compounds are added to respective wells and the culture incubated at 37° C. in a CO2 enriched atmosphere and the viability of cells is determined at day five or six with XTT vital dye. Results are typically presented as ED50 μM.
On the technique in general: Tetrazolium assays rely on reduction of a dye to a coloured formazan, in cell work by metabolically active cells.
As for `N#Cc1ccc(NC(=O)N[C@@H]2[C@@H]3COc4cc(F)cc(F)c4[C@@H]32)nc1` (relative stereo) [Example 23, 1-(5-Cyano-pyridin-2-yl)-3-(5,7-difluoro-1,1a,2,7b-tetrahydro-cyclopropa[c]chromen-1-yl)urea], the EC50 is 7 nM.
Same read-out and setting: the result for `N#Cc1ccc(NC(=O)N[C@@H]2[C@@H]3COc4c(Cl)ccc(Cl)c4[C@@H]32)nc1` [Example 33, +/−-cis-N-(5-cyano-2-pyridinyl)-N′-(4,7-dichloro-1,1a,2,7b-tetrahydrocyclopropa[c]chromen-1-yl)urea] reads 9 nM; that for `N#Cc1ccc(NC(=O)N[C@@H]2[C@@H]3COc4c(Br)ccc(F)c4[C@@H]32)nc1` [Example 24, cis-1-(4-Bromo-7-fluoro-1,1a,2,7b-tetrahydro-cyclopropa[c]chromen-1-yl)-3-(5-cyano-pyridin-2-yl)-urea], 20 nM.
Same read-out and setting: in the case of `N#Cc1ccc(NC(=O)N[C@@H]2[C@@H]3COc4c(F)ccc(F)c4[C@@H]32)nc1` [Example 30, (−)-cis-1-(5-Cyano-pyridin-2-yl)-3-(4,7-difluoro-1,1a,2,7b-tetrahydro-cyclopropa[c]chromen-1-yl)-urea] it was 3 nM; in that of `O=C(Nc1ccc(Cl)cn1)N[C@H]1C2c3c(F)ccc(F)c3OC[C@H]21` (single isomer, unassigned; (-)) [Example 31, (−) cis-1-(5-Chloro-pyridin-2-yl)-3-(4,7-difluoro-1,1a,2,7b-tetrahydro-cyclopropa[c]chromen-1-yl)-urea], 2.5 nM; in that of `N#Cc1ccc(NC(=O)NC2C3Sc4ccccc4C23)nc1` (racemic) [Example 43, (+/−)cis N-[1a,6b-dihydro-1H-benzo[b]cyclopropa[d]thien-1-yl]-N′-(5-cyano-2-pyridinyl)-urea], 2 nM.

Staying with this assay, now noted: XTT assay, MT-4 cells, wild type HIV-1IIIB; read-out: ED50 (the source's name).
As to “(+/−)-cis-1-(5-Bromo-pyridin-2-yl)-3-(4,7-difluoro-1,1a,2,7b-tetrahydro-cyclopropa[c]chromen-1-yl)-urea [Example 19]”, the EC50 was 10 nM.
Same read-out and setting: in the case of `O=C(Nc1ccc(Oc2ccccc2)cn1)N[C@@H]1[C@@H]2COc3c(F)ccc(F)c3[C@@H]21` (relative stereo) [Example 20, +/−cis-1-(4,7-Difluoro-1,1a,2,7b-tetrahydro-cyclopropa[c]chromen-1-yl)-3-(5-phenoxy-pyridin-2-yl)-urea] it was 7 nM.
For “(+/−)-cis-1-(4,7-Difluoro-1,1a,2,7b-tetrahydro-cyclopropa[c]chromen-1-yl)-3-(5-ethynyl-pyridin-2-yl)-urea [Example 18]”, the EC50 turned out to be 6 nM.
The same measure, in the same setting: in the case of `N#Cc1ccc(NC(=O)NC2C3COc4c(Cl)ccc(F)c4C32)nc1` (racemic) [Example 7, (±)-cis-1-(5-Cyano-pyridin-2-yl)-3-(7-fluoro-4-chloro-1,1a,2,7b-tetrahydro-cyclopropa[c]chromen-1-yl)-urea] it was 7 nM.
“(+/−)-cis-1-(5-Cyano-3-methyl-pyridin-2-yl)-3-(4,7-difluoro-1,1a,2,7b-tetrahydro-cyclopropa[c]chromen-1-yl)-urea [Example 16]”: the EC50 was 6 nM.
